The values that follow come from ChEMBL document CHEMBL1122867, “Inhibition of human leukocyte elastase, porcine pancreatic elastase, and chymotrypsin by elasnin and other 4-hydroxy-2-pyrones” (J Med Chem, 1985).

One data set has as its target T1, Neutrophil elastase (Homo sapiens, UniProt P08246).
T1 sequence (P08246 whole entry): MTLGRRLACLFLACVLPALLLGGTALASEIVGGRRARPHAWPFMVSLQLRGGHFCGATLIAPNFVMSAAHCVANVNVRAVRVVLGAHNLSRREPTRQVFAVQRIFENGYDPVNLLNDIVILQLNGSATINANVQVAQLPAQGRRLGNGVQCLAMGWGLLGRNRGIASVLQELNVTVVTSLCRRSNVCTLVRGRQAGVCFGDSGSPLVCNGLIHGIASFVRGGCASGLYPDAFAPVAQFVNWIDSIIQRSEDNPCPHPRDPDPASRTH
Nature of the data set: Inhibitory activity against human leukocyte elastase (HL elastase) expressed as inhibitory constant.

The target in data set [1] is Chymotrypsin-like elastase family member 1 (Sus scrofa, UniProt P00772). Nature of the data set: Inhibitory activity against porcine pancreatic elastase (PP elastase) expressed as inhibitory constant.
Data set [2] is described as follows: Partition coefficient (logP) (octanol/saline). It is filed as physicochemical.

Chymotrypsin-like elastase family member 1, sequence (P00772 whole entry): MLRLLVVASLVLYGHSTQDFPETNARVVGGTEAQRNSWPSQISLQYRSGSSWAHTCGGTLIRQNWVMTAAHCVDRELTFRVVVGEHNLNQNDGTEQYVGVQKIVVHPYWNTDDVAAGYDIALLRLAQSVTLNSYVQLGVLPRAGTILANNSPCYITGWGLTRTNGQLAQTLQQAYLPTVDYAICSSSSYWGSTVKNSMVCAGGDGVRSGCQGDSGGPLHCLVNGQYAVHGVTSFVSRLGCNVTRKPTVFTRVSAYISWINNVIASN

With `Cc1c(O)cc(CC(=O)c2ccccc2)oc1=O`, the Ki (in general, a dissociation constant, usually derived from enzyme kinetics or from competition with a known ligand) on Neutrophil elastase was 977 µM; in data set [1], 2140 µM. In addition, in data set [2], the logP – broadly, the decadic logarithm of the partition coefficient of the neutral form, usually between octanol and water – amounted to 0.78.
On the same counts, the results for `CCCCc1c(C)oc(O)c(CCCC)c1=O` are 646 µM, 562 µM and 0.79.
For `O=C(Cc1cc(=O)cc(O)o1)c1ccccc1`, the Ki on Neutrophil elastase was 10000 µM. In data set [2], this compound gave a logP of 0.43.
On to `CCCCc1c(CC(C)=O)oc(=O)c(CCCC)c1OC(C)=O`, for which the Ki was 288 µM at Neutrophil elastase and 251 µM in data set [1]. The compound further had a logP in data set [2] of 2.82.
On to `Cc1cc(O)c(C)c(=O)o1`, for which the Ki was 6310 µM on Neutrophil elastase and 3890 µM in data set [1]. This compound also displayed a logP in data set [2] of 0.74.
`CCCCCC(=O)C(CCCC)c1oc(=O)c(CCCC)c(OC(C)=O)c1CCCC` (stereo unspecified) had a Ki in data set [1] of 8.13 µM. Also, the logP in data set [2] worked out at 3.53.
As to `Cc1c(CC(=O)c2ccccc2)oc(=O)c(C)c1O`, the Ki was 6030 µM on Neutrophil elastase and 3240 µM in data set [1]. The logP in data set [2] is 0.73.
On the same counts, the results for `CCCCc1c(C2OC2C)oc(=O)c(CCCC)c1OC(C)=O` (stereo unspecified) are 339 µM, 316 µM and 2.17.
On the same counts, the results for `CCCCCCC(C=O)(CCCC)c1oc(=O)c(CCCC)c(O)c1CCCC` (stereo unspecified) are 151 µM, 15.1 µM and 1.52.
For `Cc1oc(=O)c(C)c(O)c1C`, the figures for the Ki (on Neutrophil elastase; in data set [1]) were 4900 µM and 21900 µM, respectively. In addition, the logP in data set [2] came to 0.36.
In the case of `CCCCCC(=O)C(CCCC)c1oc(=O)c(CCCC)c(O)c1CCCC` (stereo unspecified), the Ki on Neutrophil elastase was 93.3 µM; in data set [1], 69.2 µM. The same compound had a logP in data set [2] of 2.52.
Consider `C/C=C(\c1ccccc1)c1oc(=O)c(CCCC)c(O)c1CCCC`, for which the Ki at Neutrophil elastase was 363 µM; in data set [1], 141 µM. The compound further returned a logP in data set [2] of 1.39.
For `CCCCc1c(CC(C)=O)oc(=O)c(CCCC)c1O`, the Ki on Neutrophil elastase is 490 µM; in data set [1] it was 741 µM. For the same compound, in data set [2], the logP was 1.74.
The corresponding values for `CCCCc1c(C(CCCC)C(=O)c2ccccc2)oc(=O)c(CCCC)c1O` (stereo unspecified) are 95.5 µM, 21.4 µM and 1.21.
Regarding `CCCCc1c(CC(C)O)oc(=O)c(CCCC)c1OC(C)=O` (stereo unspecified), the Ki on Neutrophil elastase was 347 µM; in data set [1] it was 1070 µM. The logP in data set [2] turned out to be 1.92.
On to `Cc1cc(O)cc(=O)o1` [4-HYDROXY-6-METHYLPYRAN-2-ONE], for which the Ki at Neutrophil elastase is 8130 µM; in data set [1], 3090 µM. The compound also returned a logP in data set [2] of 0.5.
